Test results from patent publication US20240239799A1, “(S)-1-(5-((PYRIDIN-3-YL)THIO)PYRAZIN-2-YL)-4'H,6'H-SPIRO[PIPERIDINE-4,5'-PYRROLO [1,2-B]PYRAZOL]-4'-AMINE DERIVATIVES AND SIMILAR COMPOUNDS AS SHP2 INHIBITORS FOR THE TREATMENT OF E.G. CANCER” (C.N.C.C.S. S.C.A.R.L. COLLEZIONE NAZIONALE DEI COMPOSTI …, priority 2021, published 2024).
Like-named read-outs stand apart in the source and are kept apart here.

Experiments:
[1] = biological target: T1, SHP-2 enzyme (Met1-Leu525) (Homo sapiens, UniProt Q06124); assay: SHP2 inhibition enzymatic assay (DiFMUP substrate, IRS1 peptide activation); assay type: biochemical; details: 0.5 nM SHP-2, 500 nM IRS1 peptide, 75 μM DiFMUP; read-out: SHP2wt - IC50
T1 construct: synthetized by Origene, Met1-Leu525, cat #TP750155; purchased Origene TP750155
T1 sequence (Q06124 1-525): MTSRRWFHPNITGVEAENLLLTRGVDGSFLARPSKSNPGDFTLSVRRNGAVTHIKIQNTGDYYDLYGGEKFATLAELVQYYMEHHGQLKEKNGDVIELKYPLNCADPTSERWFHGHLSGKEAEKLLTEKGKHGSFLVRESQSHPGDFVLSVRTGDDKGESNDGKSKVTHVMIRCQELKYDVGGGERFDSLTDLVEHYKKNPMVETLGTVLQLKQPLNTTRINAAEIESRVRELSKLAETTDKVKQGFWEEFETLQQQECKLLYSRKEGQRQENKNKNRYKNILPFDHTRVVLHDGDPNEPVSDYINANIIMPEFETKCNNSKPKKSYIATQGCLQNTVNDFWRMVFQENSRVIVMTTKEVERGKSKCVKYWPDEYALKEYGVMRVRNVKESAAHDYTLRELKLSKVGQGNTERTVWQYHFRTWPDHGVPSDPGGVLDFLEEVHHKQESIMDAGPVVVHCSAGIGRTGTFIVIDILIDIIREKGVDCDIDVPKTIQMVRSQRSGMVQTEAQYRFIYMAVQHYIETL
Experimental: Assay volume of 20 μL/well was assembled in 384 well black polystyrene low-binding microplates (Greiner), using the following buffer: 60 mM HEPES pH 7.2, 75 mM NaCl, 75 mM KCl, 1 mM EDTA pH 8, 0.05% tween-20, 5 mM DTT. The SHP-2 enzyme (synthetized by Origene, Met1-Leu525, cat #TP750155) was used at a final concentration of 0.5 nM.
Briefly, DMSO serially diluted testing compounds were transferred to the bottom of the assay plate. SHP2 was then added together with the IRS1 peptide 30 min post incubation, the DiFMUP substrate was added to the reaction and incubated 30 min at rt. […] The fluorescence was detected by a microplate reader (Envision, PerkinElmer) according to the DiFMUP excitation and emission wavelength. The lower the fluorescence the higher the SHP2 inhibition.
The percentage inhibition is fitted against the compound dilutions with a four-parameter logistic regression. The inflection point (i.e. the concentration at which half-maximal inhibition is achieved) is the IC50.

[2] = test system: phospho-ERK1/2 (Thr202/Tyr204) in KYSE-520 cells; assay: Phospho-ERK cellular assay (TR-FRET); assay type: cell-based; details: read-out: pERK IC50
Experimental: ERK phosphorylation was detected using the “Advanced phospho-ERK1/2 (Thr202/Tyr204)” TR-FRET kit (Cisbio, Cat #64AERPEG/H), following the manufacturer reagents and instructions.
Briefly, 20.000/well KYSE-520 cells (DSMZ ACC 371) were plated in 6 μL RPMI-1640 (Invitrogen) growth medium, into 384 white low-volume high base TC microplates (Greiner). After an overnight incubation, cells were treated with DMSO serial diluted compounds and incubated for 2 h at 37° C. After incubation, 2 μL/well of 4X Lysis Buffer (Cisbio 64KL1FDF), were added and incubated with cells for 30 min on gentle shaking. Finally, lysates were added with 2 μL/well of Eu cryptate (donor) and D2 (acceptor) conjugated antibodies (as provided by the Cisbio kit #64AERPEG/H) diluted 1:100 in Detection Buffer (as provided by the Cisbio kit #64AERPEG/H). Plates were then sealed and incubated at rt in the dark. After an overnight incubation, the TR-FRET signal was detected on a suitable reader (Envision, PerkinElmer). The lower the TR-FRET signal the higher the higher the SHP2 inhibition in cells.
The activity of each compound dilution was calculated as percentage between vehicle DMSO treated cells and no cells, 0% inhibition and 100% inhibition respectively. The percentage activity is fitted against the compound dilutions with a four-parameter logistic regression. The inflection point (i.e. the concentration at which half-maximal inhibition is achieved) is the IC50.

[3] = Homo sapiens, KYSE-520, 2 h, KYSE-520 cells, 2 h at 37° C.

Structure (SMILES)	IC50 [1]	IC50 [2, 3]	IC50 ([2]; Homo sapiens, KYSE-520 cells, 2 h at 37° C.)	IC50 ([2]; Homo sapiens, KYSE-520, 2 h)	IC50 ([2]; KYSE-520 cells, 2 h at 37° C.)
Nc1nccc(Sc2ccc3nc(N4CCC5(CC4)Cn4nccc4[C@H]5N)cnc3n2)c1Cl [Example 73, (S)-1-(6-((2-amino-3-chloropyridin-4-yl)thio)pyrido[2,3-b]pyrazin-2-yl)-4′H,6′H-spiro[piperidine-4,5′-pyrrolo[1,2-b]pyrazol]-4′-amine]	≤ 50 nM	< 100 nM	–	–	–
N[C@@H]1c2cccn2CC12CCN(c1cnc(Sc3ccnc(-n4cccn4)c3Cl)cn1)CC2 [Example 82, (S)-1-(5-((3-chloro-2-(1H-pyrazol-1-yl)pyridin-4-yl)thio)pyrazin-2-yl)-1′H,3′H-spiro[piperidine-4,2′-pyrrolizin]-1′-amine]	≤ 50 nM	< 100 nM	–	–	–
N[C@@H]1c2ccnn2CC12CCN(c1cnc(Sc3ccnc4c3OC[C@@H]3CC5(CC5)CN43)cn1)CC2 [Example 25, (S)-1-(5-(((S)-6a′,7′-dihydro-6′H,9′H-spiro[cyclopropane-1,8′-pyrido[3,2-b]pyrrolo[1,2-d][1,4]oxazin]-4′-yl)thio)pyrazin-2-yl)-4′H,6′H-spiro[piperidine-4,5′-pyrrolo[1,2-b]pyrazol]-4′-amine]	≤ 50 nM	< 100 nM	–	–	–
N[C@@H]1c2ccnn2CC12CCN(c1cnc(SC3=C(Cl)C4=NC(=O)CN4C=C3)cn1)CC2 [Example 58, (S)-7-((5-(4′-amino-4′H,6′H-spiro[piperidine-4,5′-pyrrolo[1,2-b]pyrazol]-1-yl)pyrazin-2-yl)thio)-8-chloroimidazo[1,2-a]pyridin-2(3H)-one]	≤ 50 nM	–	100 to 500 nM	–	–
Cc1cnn2c1[C@@H](N)C1(CCN(c3cnc(Sc4ccnc(N)c4Cl)cn3)CC1)C2 [Example 10, (S)-1-(5-((2-amino-3-chloropyridin-4-yl)thio)pyrazin-2-yl)-3′-methyl-4′H,6′H-spiro[piperidine-4,5′-pyrrolo[1,2-b]pyrazol]-4′-amine]	≤ 50 nM	< 100 nM	–	–	–
N[C@@H]1c2ccnn2CC12CCN(c1cnc(Sc3ccnc(-n4cccc4)c3Cl)cn1)CC2 [Example 62, (S)-1-(5-((3-chloro-2-(1H-pyrrol-1-yl)pyridin-4-yl)thio)pyrazin-2-yl)-4′H,6′H-spiro[piperidine-4,5′-pyrrolo[1,2-b]pyrazol]-4′-amine]	≤ 50 nM	< 100 nM	–	–	–
N[C@@H]1c2ccnn2CC12CCN(c1cnc3c(-c4ccnc(-n5cccn5)c4Cl)n[nH]c3n1)CC2 [Example 71, (S)-1-(3-(3-chloro-2-(1H-pyrazol-1-yl)pyridin-4-yl)-1H-pyrazolo[3,4-b]pyrazin-6-yl)-4′H,6′H-spiro[piperidine-4,5′-pyrrolo[1,2-b]pyrazol]-4′-amine]	≤ 50 nM	100 to 500 nM	–	–	–
N[C@@H]1c2ccnn2CC12CCN(c1cnc(Sc3ccnc(-n4ccnc4)c3Cl)cn1)CC2 [Example 59, (S)-1-(5-((3-chloro-2-(1H-imidazol-1-yl)pyridin-4-yl)thio)pyrazin-2-yl)-4′H,6′H-spiro[piperidine-4,5′-pyrrolo[1,2-b]pyrazol]-4′-amine]	≤ 50 nM	< 100 nM	–	–	–
N[C@@H]1c2c(F)cnn2CC12CCN(c1cnc(Sc3ccn4c(Cl)cnc4c3Cl)cn1)CC2 [Example 50, (S)-1-(5-((3,8-dichloroimidazo[1,2-a]pyridin-7-yl)thio)pyrazin-2-yl)-3′-fluoro-4′H,6′H-spiro[piperidine-4,5′-pyrrolo[1,2-b]pyrazol]-4′-amine]	≤ 50 nM	< 100 nM	–	–	–
Nc1nc(N2CCC3(CC2)Cn2nncc2[C@H]3N)cnc1Sc1cccnc1C(F)(F)F [Example 36, (S)-1-(6-amino-5-((2-(trifluoromethyl)pyridin-3-yl)thio)pyrazin-2-yl)-4′H,6′H-spiro[piperidine-4,5′-pyrrolo[1,2-c][1,2,3]triazol]-4′-amine]	≤ 50 nM	> 500 nM	–	–	–
N[C@@H]1c2ccnn2CC12CCN(c1ncc(Sc3ccnc4c3OC[C@H]3CC5(CC5)CN43)n3cncc13)CC2 [Example 24, (S)-1-(5-(((R)-6a′,7′-dihydro-6′H,9′H-spiro[cyclopropane-1,8′-pyrido[3,2-b]pyrrolo[1,2-d][1,4]oxazin]-4′-yl)thio)imidazo[1,5-a]pyrazin-8-yl)-4′H,6′H-spiro[piperidine-4,5′-pyrrolo[1,2-b]pyrazol]-4′-amine]	50 to 300 nM	> 500 nM	–	–	–
Nc1nc(N2CCC3(CC2)Cn2nccc2[C@H]3N)cnc1Sc1cccnc1C(F)(F)F [Example 3, (S)-1-(6-amino-5-((2-(trifluoromethyl)pyridin-3-yl)thio)pyrazin-2-yl)-4′H,6′H-spiro[piperidine-4,5′-pyrrolo[1,2-b]pyrazol]-4′-amine]	≤ 50 nM	< 100 nM	–	–	–
N#Cc1cn2ccc(Sc3cnc(N4CCC5(CC4)Cn4nccc4[C@H]5N)cn3)c(Cl)c2n1 [Example 57, (S)-7-((5-(4′-amino-4′H,6′H-spiro[piperidine-4,5′-pyrrolo[1,2-b]pyrazol]-1-yl)pyrazin-2-yl)thio)-8-chloroimidazo[1,2-a]pyridine-2-carbonitrile]	≤ 50 nM	< 100 nM	–	–	–
Nc1nccc(-c2n[nH]c3nc(N4CCC5(CC4)Cn4nccc4[C@H]5N)cnc23)c1Cl [Example 40, (S)-1-(3-(2-amino-3-chloropyridin-4-yl)-1H-pyrazolo[3,4-b]pyrazin-6-yl)-4′H,6′H-spiro[piperidine-4,5′-pyrrolo[1,2-b]pyrazol]-4′-amine]	≤ 50 nM	< 100 nM	–	–	–
Cn1c(N2CCC3(CC2)Cn2nccc2[C@H]3N)nc2nc(Sc3ccnc(N)c3Cl)cnc21 [Example 74, (S)-1-(5-((2-amino-3-chloropyridin-4-yl)thio)-1-methyl-1H-imidazo[4,5-b]pyrazin-2-yl)-4′H,6′H-spiro[piperidine-4,5′-pyrrolo[1,2-b]pyrazol]-4′-amine]	50 to 300 nM	> 500 nM	–	–	–
Cc1nc(N2CCC3(CC2)Cn2cccc2[C@H]3N)cc(=O)n1-c1cccc(Cl)c1Cl [Example 86, (S)-6-(1′-amino-1′H,3′H-spiro[piperidine-4,2′-pyrrolizin]-1-yl)-3-(2,3-dichlorophenyl)-2-methylpyrimidin-4(3H)-one]	≤ 50 nM	–	–	100 to 500 nM	–
Cc1nc(N2CCC3(CC2)Cn2nccc2[C@H]3N)c(CO)nc1Sc1ccnc(N)c1Cl [Example 45, (S)-(6-((2-amino-3-chloropyridin-4-yl)thio)-3-(4′-amino-4′H,6′H-spiro[piperidine-4,5′-pyrrolo[1,2-b]pyrazol]-1-yl)-5-methylpyrazin-2-yl)methanol]	≤ 50 nM	< 100 nM	–	–	–
N[C@@H]1c2ccnn2CC12CCN(c1ccc(Sc3cccc(Cl)c3Cl)nc1)CC2 [Example 84, (S)-1-(6-((2,3-dichlorophenyl)thio)pyridin-3-yl)-4′H,6′H-spiro[piperidine-4,5′-pyrrolo[1,2-b]pyrazol]-4′-amine]	≤ 50 nM	< 100 nM	–	–	–
Cc1nc(N2CCC3(CC2)Cn2nccc2[C@H]3N)cc(=O)n1-c1cccc(Cl)c1Cl (single isomer, unassigned) [Example 77b]	> 300 nM	–	–	–	> 500 nM
N[C@@H]1c2ccnn2CC12CCN(c1cnc(Sc3ccn4c([N+](=O)[O-])cnc4c3Cl)cn1)CC2 [Example 52, (S)-1-(5-((8-chloro-3-nitroimidazo[1,2-a]pyridin-7-yl)thio)pyrazin-2-yl)-4′H,6′H-spiro[piperidine-4,5′-pyrrolo[1,2-b]pyrazol]-4′-amine]	≤ 50 nM	< 100 nM	–	–	–
